Data published in ChEMBL document CHEMBL1131734, “Synthesis of polyamine derivatives for the preparation of affinity chromatography columns for the search of new Trypanosoma cruzi targets” (Bioorg Med Chem Lett, 1999).

How the values were obtained:
Trypanosoma cruzi [1] = assay: Inhibitory activity against Trypanosoma cruzi trypomastigotes; type: functional, organism-based
Trypanothione reductase = Trypanothione reductase (Trypanosoma cruzi, UniProt P28593); assay: Inhibitory activity against trypanothione reductase in Trypanosoma cruzi trypomastigotes; NA is not active
Chain of Trypanothione reductase (P28593 whole entry): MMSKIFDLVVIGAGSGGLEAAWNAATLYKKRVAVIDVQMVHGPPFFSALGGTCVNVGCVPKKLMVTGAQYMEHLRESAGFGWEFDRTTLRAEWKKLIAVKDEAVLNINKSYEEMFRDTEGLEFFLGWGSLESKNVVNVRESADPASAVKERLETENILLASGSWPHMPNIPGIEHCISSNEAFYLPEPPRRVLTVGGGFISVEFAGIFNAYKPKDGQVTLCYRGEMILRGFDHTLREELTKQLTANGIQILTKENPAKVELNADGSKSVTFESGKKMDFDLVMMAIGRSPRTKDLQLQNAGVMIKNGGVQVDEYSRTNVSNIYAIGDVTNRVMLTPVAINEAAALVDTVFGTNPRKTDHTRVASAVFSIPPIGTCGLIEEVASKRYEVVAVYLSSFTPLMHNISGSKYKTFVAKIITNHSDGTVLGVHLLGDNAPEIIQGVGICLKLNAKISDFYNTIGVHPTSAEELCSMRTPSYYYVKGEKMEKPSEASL

Trypanosoma cruzi [2] = assay: Inhibitory activity against Trypanosoma cruzi trypomastigotes at concentration 12.5 uM; type: functional

Row | IC50 (Trypanosoma cruzi [1]) [µM] | IC50 (Trypanothione reductase) | SMILES | inhibition at 12.5 µM (Trypanosoma cruzi [2]) [%]
1 | 5 | Not Active | NCCCN1CCN(CCCNCC2CCCCC2)CC1 | –
2 | 5 | Not Active | NCCCCC(N)C(=O)NCC1CCC(CNCCCN2CCN(CCCNCC3CCC(CNC(=O)C(N)CCCCN)CC3)CC2)CC1 (centres undefined) | –
3 | 5 | Not Active | NCCCN1CCN(CCCN)CC1 | –
4 | 5 | Not Active | NCCCN1CCN(CCCN2C(=O)c3ccccc3C2=O)CC1 | –
5 | 5 | Not Active | O=C1c2ccccc2C(=O)N1CCCN1CCN(CCCNCC2CCCCC2)CC1 | –
6 | 5 | Not Active | C1CCC(CNCCCN2CCN(CCCNCC3CCCCC3)CC2)CC1 | 90
7 | 5 | Not Active | CC(C)(C)OC(=O)NCCCCC(NC(=O)OC(C)(C)C)C(=O)NCC1CCC(CNCCCN2CCN(CCCNCC3CCC(CNC(=O)C(CCCCNC(=O)OC(C)(C)C)NC(=O)OC(C)(C)C)CC3)CC2)CC1 (centres undefined) | –
8 | 5 | Not Active | CC(C)(C)OC(=O)NCCCCC(NC(=O)OC(C)(C)C)C(=O)NCC1CCC(CNCCCN2CCN(CCCNCC3CCCCC3)CC2)CC1 (centres undefined) | –
9 | 5 | Not Active | NCCCCC(N)C(=O)NCC1CCC(CNCCCN2CCN(CCCNCC3CCCCC3)CC2)CC1 (centres undefined) | –
